Test system: CTLL-2 cells
Format: cell-based

Sequence: GLFGAAGFIENGWEGCGGEKEKEK [non-IS #1]
- effect of the dimeric peptides on proliferation of CTLL-2 cells (synthesis of new DNA): much less

Sequence: GLFAGFIENGWEGCGGEKEKEK [non-IS #2]
- effect of the dimeric peptides on proliferation of CTLL-2 cells (synthesis of new DNA): no significant effect

From patent US10961279B2 (priority 2011, dated 2021)
